Data set [1] can be described thus: DPPH radical scavenging assay. The settings on record: 500 μM; 30 min in the dark. The protocol: DPPH radical scavenging activity was determined by mixing the DPPH solution with compounds 1–13, leaving it in the dark at 20 °C for 30 min, and measuring the optical density at 517 nm. Ascorbic acid (AA) was used as a positive control to compare the scavenging activity. All test samples were used at 500 μM.
An aliquot (20 μL) of test sample (compounds 1–13 and ascorbic acid [positive control]; 5 mM) in DMSO and 180 μL DPPH solution (0.2 mM) in methanol were mixed in each well of a 96-well plate. The mixed solution was kept in the dark at 18 °C for 30 min. A VE microplate reader was used to measure the optical density of each well at 517 nm.
Background: Loss of DPPH colour is used to gauge radical scavenging.

Data set [2] has as its target T1, mushroom tyrosinase (Agaricus bisporus, UniProt C7FF04). In words: Kinetic analysis of mushroom tyrosinase (Lineweaver–Burk and Dixon plots). Format: biochemical. Further details: purchased Sigma-Aldrich. The settings on record: substrate L-dopa. The procedure:
Therefore, the mechanism of inhibition was investigated using mushroom tyrosinase. At various concentrations of L-dopa, the initial dopachrome production rate was investigated at four different concentrations of 5 (0, 20, 40, and 80 μM) and 9 (0, 0.5, 1.0, and 2.0 μM).
The Lineweaver–Burk plot for each compound was re-plotted by plotting the reciprocal of the initial dopachrome production rate vs. the […] to create a Dixon plot for each compound (Figure 3C,D for compounds 5 and 9, respectively). […] The absolute value of the x-coordinate of the merged point represents the inhibition constant (Ki), which indicates the potency of the inhibitor.
Kinetic analysis of mushroom tyrosinase was performed by recording the initial dopachrome formation rate in the presence of compounds 5 and 9. […] The optical density of dopachrome production in each well was recorded at 475 nm at 5 min intervals for 30 min. Compounds were tested at 80, 40, 20, and 0 μM for 5 and at 2, 1.0, 0.5, and 0 μM for 9, respectively. Potting the inverse of the substrate concentration vs. the reciprocal of the initial dopachrome production rate generated Lineweaver–Burk plots.
Target sequence in this assay (C7FF04 1-392): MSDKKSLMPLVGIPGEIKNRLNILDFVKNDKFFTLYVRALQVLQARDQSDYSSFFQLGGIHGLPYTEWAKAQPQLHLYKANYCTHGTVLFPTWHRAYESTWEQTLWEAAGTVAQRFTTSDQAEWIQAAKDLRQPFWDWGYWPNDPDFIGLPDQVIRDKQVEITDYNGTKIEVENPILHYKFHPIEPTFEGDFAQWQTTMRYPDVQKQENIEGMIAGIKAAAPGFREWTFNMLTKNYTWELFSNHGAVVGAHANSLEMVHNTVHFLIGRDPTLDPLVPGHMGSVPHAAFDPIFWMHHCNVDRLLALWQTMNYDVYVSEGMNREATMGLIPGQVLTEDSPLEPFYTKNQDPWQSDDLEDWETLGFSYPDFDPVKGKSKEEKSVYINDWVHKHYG

For data set [3], the target named is T1, mushroom tyrosinase. In words: Mushroom tyrosinase inhibitory activity assay (L-dopa or L-tyrosine as substrate). Format: biochemical. The procedure:
In the inhibition experiments, L-dopa and L-tyrosine were used as enzyme substrates.
The plate was incubated at 37 °C for 30 min, and absorbance of dopachrome formation was recorded spectrophotometrically at 475 nm using a VersaMax® Elisa (VE) microplate reader (Molecular Devices, San Jose, CA, USA) to determine tyrosinase inhibition activity. A VE microplate reader was used in all subsequent experiments to measure optical density. All experiments were carried out independently three times.
Target sequence in this assay (C7FF04 2-392): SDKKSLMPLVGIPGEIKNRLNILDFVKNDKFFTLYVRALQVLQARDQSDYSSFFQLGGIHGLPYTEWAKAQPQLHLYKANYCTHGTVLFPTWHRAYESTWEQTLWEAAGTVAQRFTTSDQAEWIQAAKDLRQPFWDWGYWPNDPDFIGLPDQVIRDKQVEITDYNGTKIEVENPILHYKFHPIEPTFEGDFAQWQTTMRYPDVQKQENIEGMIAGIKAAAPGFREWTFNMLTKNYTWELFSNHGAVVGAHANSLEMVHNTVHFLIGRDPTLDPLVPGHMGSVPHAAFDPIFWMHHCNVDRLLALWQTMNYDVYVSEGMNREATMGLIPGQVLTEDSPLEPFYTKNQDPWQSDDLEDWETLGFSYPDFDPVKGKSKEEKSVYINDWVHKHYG

A further data set relates to HaCaT cells. In words: Cytotoxicity assay on HaCaT cells (EZ-Cytox). Format: cell-based, human. Particulars: 1, 2, 5, 10, and 20 μM, 24 h. The protocol: In addition to melanocytes, keratinocytes are the primary cells present in the epidermis. […] Each compound was treated at concentrations of 0, 1, 2, 5, 10, and 20 μM for 24 h, and cell viability was measured using the EZ-Cytox solution.
The effect of compounds 5 and 9 on cell viability of HaCaT and B16F10 cells was assessed using an EZ-Cytox solution (EZ-1000®, DoGenBio, Seoul, Republic of Korea). HaCaT (5 × 10^3 cells/well) and B16F10 (1 × 10^3 cells/well) cells were seeded in a 96-well plate, respectively, and cultured for 24 h under the same conditions as the cell culture. Each well was treated with 5 and 9 at 0, 1, 2, and 5 μM for B16F10 cells and 0, 1, 2, 5, 10, and 20 μM for HaCaT cells. The plates were incubated for 72 h for B16F10 cells and 24 h for HaCaT cells under a CO2 incubator. Each well was treated with the EZ-Cytox solution (10 μL), and the plate was left for 2 h under a CO2 incubator. Well optical density was measured at 450 nm to determine cytotoxicity.

For data set [4], the target named is T2, B16F10 cellular tyrosinase (Mus musculus, UniProt P11344).
T2 construct: endogenous in cells; host or cells: B16F10 murine cells, stimulated with α-MSH and IBMX
T2 sequence (P11344 19-533): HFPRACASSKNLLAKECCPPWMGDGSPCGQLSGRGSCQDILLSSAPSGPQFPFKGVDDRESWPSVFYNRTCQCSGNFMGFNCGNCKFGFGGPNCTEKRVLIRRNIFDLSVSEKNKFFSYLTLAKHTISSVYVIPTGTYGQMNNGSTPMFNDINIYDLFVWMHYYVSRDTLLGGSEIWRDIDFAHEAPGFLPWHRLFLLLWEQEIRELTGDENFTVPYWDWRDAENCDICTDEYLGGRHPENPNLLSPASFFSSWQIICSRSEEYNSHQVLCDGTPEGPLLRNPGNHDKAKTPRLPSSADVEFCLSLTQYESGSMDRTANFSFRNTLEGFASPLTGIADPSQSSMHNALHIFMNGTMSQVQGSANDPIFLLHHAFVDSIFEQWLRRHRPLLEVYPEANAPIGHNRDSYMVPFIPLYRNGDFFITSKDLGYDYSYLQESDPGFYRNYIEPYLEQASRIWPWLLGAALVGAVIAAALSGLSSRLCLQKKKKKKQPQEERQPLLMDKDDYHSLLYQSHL
In words: Cellular tyrosinase activity assay using B16F10 cells. It is filed as cell-based, murine. Particulars: 1, 2, and 5 μM, IBMX 200 μM plus α-MSH 1 μM, 72 h. The procedure:
After 72 h of incubation, the B16F10 cellular tyrosinase inhibitory activity was evaluated by measuring the optical density at 475 nm.
To evaluate the effect of compounds 5 and 9 on cellular tyrosinase activity, B16F10 cells (5000 cells/well) were inoculated in a 6-well plate and cultured for 24 h under the same conditions as the cell culture. […] The plate was incubated in a 5% CO2 incubator maintained at 37 °C for 1 h. Each well was treated with stimulators (1 μM α-MSH [Alomone Labs^TM, Jerusalem, Israel] and 200 μM IBMX [Thermo Fisher, Rockford, IL, USA]) and incubated in a CO2 incubator for 72 h. The cells were rinsed twice with PBS (pH 7.4) and treated with 100 μL lysis buffer solution consisting of Triton X-100 (1%; 5 μL), phosphate buffer (50 mM; pH 6.5; 90 μL), and phenylmethanesulfonyl fluoride (2 mM; 5 μL). The lysates were placed for 30 min at −80 °C. After centrifuging at 10,000 g and 4 °C for 10 min, an aliquot (80 μL) of the supernatants was transferred to each well of a 96-well plate, and 20 μL of L-dopa solution (10 mM) was added to each well. The optical density at 475 nm was recorded every min for 10 min to determine cellular tyrosinase activity.

With `Oc1ccc(-c2nc3cc4c(cc3s2)OCO4)c(O)c1` [Compound 9, 4-([1,3]Dioxolo[4′,5′:4,5]benzo[1,2-d]thiazol-6-yl)benzene-1,3-diol], the “DPPH radical scavenging (inhibition)” value in data set [1] was determined as 85%. Further, at mushroom tyrosinase [2] (Dixon plot, read-out: inhibition constant (Ki)), the Ki turned out to be 380 nM. Also, the mechanism of inhibition entry at mushroom tyrosinase [2] (Lineweaver–Burk plot) is recorded as “competitive inhibitors”. On mushroom tyrosinase [3] (L-dopa and L-tyrosine), the “IC50 values regardless of the substrate used (in words)” value was “nanomolar”. Also, the inhibition at 2 µM at mushroom tyrosinase [3] (substrate L-dopa, 2.0 μM, read-out: Inhibition (%) measured at 2.0 μM (converted)) is 76.1%. Also, on mushroom tyrosinase [3] (substrate L-tyrosine, 0.4 μM, read-out: Inhibition (%) measured at 0.4 μM (converted)), the inhibition at 0.4 µM is 71.8%. The “cytotoxicity (cell viability)” value with HaCaT cells is recorded as “None of the compounds revealed significant cytotoxicity up to 20 μM”. Besides, the cellular tyrosinase activity result in data set [4] is “significantly decreased the cellular tyrosinase activity”.

In general, Ki refers to the equilibrium dissociation constant of an inhibitor or competing ligand from its target. One may read the inhibition as the change of the read-out against control, counted positive when it falls.

The record behind these values is article PMC11990524, “Design and Synthesis of Novel 6-(Substituted phenyl)-[1,3]dioxolo[4′,5′:4,5]benzo[1,2-d]thiazole Compounds as Tyrosinase Inhibitors: In Vitro and In Vivo Insights” (Molecules, 2025).
